US20260217662A1, “PROCESSES FOR PREPARING TRIAZOLE GLYCOLATE OXIDASE INHIBITORS” (CANTERO THERAPEUTICS, INC., priority 2020, published 2026)

Biological target: T1, human glycolate oxidase (hGO) (Homo sapiens, UniProt Q9UJM8)
T1 construct: His-tag (6 histidines) (N); made in house; host or cells: E. coli BL21 (DE3)
T1 sequence (Q9UJM8 1-370): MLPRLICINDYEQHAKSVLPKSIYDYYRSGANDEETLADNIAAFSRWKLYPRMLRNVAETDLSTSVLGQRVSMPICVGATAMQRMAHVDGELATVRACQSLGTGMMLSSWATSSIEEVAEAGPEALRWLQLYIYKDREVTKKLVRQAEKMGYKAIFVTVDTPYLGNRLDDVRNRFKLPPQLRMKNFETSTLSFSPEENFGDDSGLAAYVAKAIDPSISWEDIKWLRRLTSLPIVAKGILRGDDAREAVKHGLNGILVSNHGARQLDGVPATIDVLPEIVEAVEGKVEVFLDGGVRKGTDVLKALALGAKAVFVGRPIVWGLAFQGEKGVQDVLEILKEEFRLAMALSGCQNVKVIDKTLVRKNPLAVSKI
Test: In vitro inhibition of human glycolate oxidase (enzymatic assay, coupled HRP/Trinder reaction)
Type: biochemical
Settings: recombinant hGO, 40 mM glycolic acid, pH 7, activity at 1 minute, read at 515 nm
Excerpt: The catalytic reactions used for assaying glycolate oxidase activity in the presence of compounds according to the present disclosure are outlined in FIG. 9. Glycolate oxidase (GO)-catalyzed conversion of glycolate to glyoxylate (top reaction), with the concomitant reduction of the cofactor flavin mononucleotide (FMN), uses molecular oxygen (O2) for recovering its oxidative state, releasing hydrogen peroxide (H2O2). The Trinder reaction (bottom reaction), in which horseradish peroxidase (HRP) uses hydrogen peroxide, 4-aminoantipyrine and a phenol derivative (sulphonated DCIP) to generate a quinoneimine dye that is spectrophotometrically measured.
Human glycolate oxidase (hGO) expression: BL21 (DE3) E. coli transformed with recombinant pET-15b expression vector with the N-terminal His-tag human Hao1 cDNA was grown in LB medium in the presence of 0.1 mg/ml ampicillin. […] Protein were quantified by the bicinchoninic acid (BCA) assay.
Enzymatic assays: Enzymatic activity of hGO was determined in the presence of glycolate as substrate (40 mM glycolic acid) and phosphate buffer (50 mM KPO4, 0.1 mM EDTA, pH 7). The production of glyoxylate was indirectly measured by the quantification of hydrogen peroxide formed during the first oxidation reaction. […] Enzymatic activity was calculated at 1 minute after initiation of the Trinder reaction.

Row | IC50 | SMILES
1 | < 100 nM | O=C(O)c1nn[nH]c1Oc1ccc(-c2ccc(C3CCC(F)(F)C3)cc2)cc1 (centres unmarked) [Ib-1, 5-((4′-(3,3-difluorocyclopentyl)-[1,1′-biphenyl]-4-yl)oxy)-1H-1,2,3-triazole-4-carboxylic acid]
2 | < 100 nM | O=C(O)c1nn[nH]c1Oc1ccc(-c2ccc(C3CCC(F)(F)CC3)cc2)cc1 [Ic-1, 5-((4′-(4,4-difluorocyclohexyl)-[1,1′-biphenyl]-4-yl)oxy)-1H-1,2,3-triazole-4-carboxylic acid]
